Columns and labels:
[1] = system: EMT-6 tumor cells; assay: Radiosensitization effect on tumor transplanted in animal (ER in vivo); set-up: species or system male Bal/c mouse; conditions: EMT-6 tumor in mouse, 100 mg/kg intraperitoneal, X-ray after 40 minutes at 450 rad/min. for 5 minutes
Description: Radiosensitization effect on tumor transplanted in animal (ER in vivo)
To both thighs of male Bal/c mouse (8 weeks; 4 mice in a group), 10^5 of EMT-6 tumor cells were subcutaneously inoculated. After the diameter of the tumor reached about 1 cm, a solution of a compound to be examined in saline in an amount of 100 mg of the compound per kg was intraperitonealy administered. After 40 minutes, X-ray was irradiated at 450 rad/min. for 5 minutes and then the mouse was sacrificed.
After the whol body of the mouse was sterilized with 70% ethanol, the tumor was taken out. The tissue was homogenized and then digested by stirring for 50 minutes at 37° C. with adding 22 ml of trypsin. The number of cells in the supernatant was counted. A predetermined amount of the cells was introduced in a plastic plate having a diameter of about 5 cm. To the plate, 5 ml of medium was added and cultured in a CO2 incubator. The plate containing the irradiated cells was removed from the incubator after 9 days, while a comparison dish containing unirradiated cells was incubated for 10 days. The cells were fixed by methanol and strained by Giemsa stain. Then, the number of colonies formed were counted.
The survival rate was calculated with using the data of the unirradiated cells as control.

[2] = system: Chinese hamster V-79 cells; assay: Radiosensitization effect on cells (ER in vitro); assay type: cell-based; conditions: 1.0 mM, 60 min at 37° C., nitrogen (hypoxic), X-ray 1.6 Gy/min
Description: Radiosensitization effect on cells (ER in vitro)
A solution of a predetermined concentration (1.0 mM) of a compound to be examined in a medium was added to the dish. After standing for 60 minutes at 37° C., the dish was placed in a closed vessel at room temperature.
After the irradiation, the cells were washed with phosphate buffer and digested with trypsin into single cells. Then, a predetermined amount of the cells was introduced into 5 ml of a culture medium in a culture dish and cultured for 7 days at 37° C. After staining and washing with water, the number of colonies formed was counted.
For comparison, the irradiation was carried out in the nitrogen atmosphere or in the air after adding the medium without the test compound.

[3] = in vivo; conditions: mouse, female ICR mice of 5 weeks
[4] = system: hypoxic cells; conditions: compared with no Misonidazole; cited from earlier work
[5] = hardly administered in an effective amount; cited from earlier work
[6] = administered in human beings; cited from earlier work

Compound | ER in vivo [1] | ER in vitro [2] | LD50 [3] [mg/kg] | hypoxic cell sensitizing effectiveness [4] | neurotoxicity [5] | sensitizing effect in human beings [6]
O=[N+]([O-])c1nccn1CC(F)COCC(O)CO (stereo not drawn) [(1), 1-(2'-fluoro-4'-oxa-6',7'-dihydroxyheptyl)-2-nitroimidazole] | 1.38 | 1.49 | 2700 | – | – | –
O=[N+]([O-])c1nccn1CC(F)COCCO (stereo not drawn) [(11), 1-(2'-fluoro-4'-oxa-6'-hydroxyhexcyl)-2-nitroimidazole] | 1.52 | 1.66 | – | – | – | –
NC(=O)CCNC(=O)C(F)(F)Cn1ccnc1[N+](=O)[O-] [(22), 3-[3'-(2"-nitroimidazolyl)-2',2'-difluoropropionylamino]propionic acid amide] | 1.58 | 1.46 | 2800 | – | – | –
NC(=O)C(F)(F)CNC(=O)C(F)(F)Cn1ccnc1[N+](=O)[O-] [(24), 3-[3'-(2"-nitroimidazolyl)-2',2'-difluoropropionylamino]-2,2-difluoropropionic acid amide] | 1.41 | 1.76 | 2600 | – | – | –
NC(=O)C(F)(F)Cn1ccnc1[N+](=O)[O-] [(28), 3-(2'-nitroimidazolyl)-2,2-difluoropropionic acid amide] | 1.32 | 1.48 | 1100 | – | – | –
O=C(COCC(F)(F)Cn1ccnc1[N+](=O)[O-])NCCO [(43), 2[3'-(2"-nitroimidazolyl)-2',2'-difluoropropoxy]acetic acid hydroxyethylamide] | 1.38 | 1.54 | > 2000 | – | – | –
O=C(COCC(F)(F)Cn1ccnc1[N+](=O)[O-])NO [(44)] | 1.48 | 1.68 | – | – | – | –
O=C(NCCO)C(F)(F)COCC(F)(F)Cn1ccnc1[N+](=O)[O-] [(45), 3-[3'-(2"-nitroimidazolyl)-2',2'-difluoropropoxy]-2,2-difluoropropionic acid hydroxyethylamide] | 1.40 | 1.63 | > 1600 | – | – | –
NC(=O)C(F)(F)COCC(F)(F)Cn1ccnc1[N+](=O)[O-] [(46), 3-[3'-(2"-nitroimidazolyl)-2',2'-difluoropropoxy]2,2-difluoropropionylamide] | 1.45 | 1.58 | – | – | – | –
O=C(CCNC(=O)C(F)(F)Cn1ccnc1[N+](=O)[O-])NCCO [(47), 3-[3'-(2"-nitroimidazolyl)-2',2'-difluoropropionamido]propionic acid hydroxyethylamide] | 1.38 | 1.43 | > 2000 | – | – | –
NC(=O)CNC(=O)C(F)(F)Cn1ccnc1[N+](=O)[O-] [(48)] | 1.49 | 1.61 | 2200 | – | – | –
COC(=O)OCCNC(=O)C(F)(F)Cn1ccnc1[N+](=O)[O-] [(51), methyl 3-(2'-nitroimidazolyl)-2,2-difluoropropionamidoethoxyformate] | – | – | > 3000 | – | – | –
COCC(O)Cn1ccnc1[N+](=O)[O-] (stereo not drawn) [Comparative (1), 1-(2-Nitro-1-imidazolyl)-3-methoxy-2-propanol] | 1.43 | 1.50 | – | about twice as effective as when no Misonidazole is used | strong neurotoxicity | No sensitizing effect was confirmed
